Results taken from patent publication US7745574B2, “Compounds that regulate apoptosis” (The Burnham Institute, priority 2005, dated 2010).
[ ]: non-standard residue; d: D form. Ahx = NCCCCCC(=O)O

Tests used:
H460 lung cancer cells = assay: Apoptosis in H460 lung cancer cells; assay type: cell-based; details: alanine scan, H460 lung cancer cells
[1] = Induction of apoptosis by Nur77 peptides, cell line not stated; assay type: cell-based
Protocol: Apoptosis assays—For nuclear morphological change analysis, cells were trypsinized, washed with PBS, fixed with 3.7% paraformaldehyde, and stained with DAPI (4,6-diamidino-2-phenylindole) (50 μg/ml) to visualize the nuclei by UV-microscopy. The percentages of apoptotic cells were determined by counting 300 GFP-positive cells, scoring cells having nuclear fragmentation and/or chromatin condensation.

Bcl-2 [2] = target: T1, Bcl-2 (Homo sapiens, UniProt P10415); assay: Co-immunoprecipitation with Bcl-2 in HEK293T cells; assay type: binding; parameters: expressed in transfected cells; host or cells: HEK293T; details: peptide added
T1 sequence (P10415 whole entry, the tested form may be a part): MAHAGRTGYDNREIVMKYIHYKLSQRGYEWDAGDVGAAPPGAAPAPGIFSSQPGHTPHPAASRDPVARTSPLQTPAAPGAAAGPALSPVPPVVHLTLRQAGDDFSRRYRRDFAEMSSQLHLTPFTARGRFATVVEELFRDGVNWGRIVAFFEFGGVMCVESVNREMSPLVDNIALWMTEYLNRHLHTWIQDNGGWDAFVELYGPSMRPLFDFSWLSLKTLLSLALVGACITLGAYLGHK
Protocol: Nur77 peptide binds anti-apoptotic Bcl-2 family members. Nur77-peptide binds Bcl-B, Bfl-1, and Bcl-2, but not Mcl-1 and Bcl-xL. […] The expression vector for the GFP-Nur77/489-497 fusion was transfected into HEK293T cells together with or without the indicated expression vector for myc-tagged Bcl-2 family member. Cell lysates were prepared and analyzed for interaction of Nur77/489-497 with Bcl-2 family members by co-immunoprecipitation assay using anti-Myc antibody. Immunoprecipitates were then separated on SDS/PAGE and immunoblotted using anti-GFP antibody. […] Nur77/Bcl-2 interaction assays—Reporter gene assays using NurRE-tk-CAT in CV-1 cells, and GST pull-down assay were described previously (Li, et al. 2000 Science 289:1159-1164). For the mammalian two-hybrid assays, CV-1 cells were co-transfected with pcDNA-Gal4TAD-Nur77 or pcDNA-Gal4TAD-Nur77/ΔDBD and pcDNA-Gal4 DBD-Bcl-2/ΔTM along with a luciferase reporter gene driven by four copies of the Gal-4-binding site. The cells were harvested and reporter gene activity was measured. For Co-IP assays, HEK293T cells were transiently transfected with various expression plasmids using a modified calcium phosphate precipitation method (Wu et al, 1997) in the presence of caspase inhibitors (zVAD-fmk) to prevent degradation of Nur77 protein due to apoptosis. Cells were suspended in lysis buffer (50 mM Tris-HCl, PH7.4; 150 mM NaCl; 20 mM EDTA; 1% NP-40; 1 mM PMSF; 50 μg/ml Leupeptin; […]; 0.1 mM Na3VO4; and 1 mM DTT). Cells extracts were cleared by incubation with the Protein A/G plus Agarose beads (Santa Cruz) and then incubated with appropriate antibody and 30 μl of Protein A or G plus Agarose beads overnight at 4° C. […] Immunoreactive products were detected by chemiluminescence with an enhanced chemiluminescence system (ECL) (Amersham).

Bcl-2 [3] = target: T1, Bcl-2; assay: Bcl-2 conformational change, anti-Bcl-2/BH3 antibody staining of HEK293T cells transfected with Bcl-2; assay type: cell-based; parameters: expressed in transfected cells; host or cells: HEK293T; details: flow cytometry
Protocol: Such a Bcl-2 conformation is recognized by an anti-Bcl-2 antibody raised against the Bcl-2 BH3 domain. To determine whether NuBCP-9 induced a Bcl-2 conformational change, flow cytometric assays were conducted which HEK293T cells transfected with Bcl-2 were exposed to NuBCPs and subsequently stained with the anti-Bcl-2/BH3 antibody.

| Substance | apoptotic effect of alanine-substituted Nur77-9 (H460 lung cancer cells) | induction of apoptosis [1] | further results |
| --- | --- | --- | --- |
| acetyl-ASRSLHSLLGXmmrrr-amide [SEQ ID NO: 61] | largely impaired |  |  |
| acetyl------------FAALSALVLGXrrrrrrrr-amide (Ac-FAALSALVLG[Ahx][dR][dR][dR][dR][dR][dR][dR][dR]-NH2; SMILES CC(=O)N[C@@H](Cc1ccccc1)C(=O)N[C@@H](C)C(=O)N[C@@H](C)C(=O)N[C@@H](CC(C)C)C(=O)N[C@@H](CO)C(=O)N[C@@H](C)C(=O)N[C@@H](CC(C)C)C(=O)N[C@H](C(=O)N[C@@H](CC(C)C)C(=O)NCC(=O)NCCCCCC(=O)N[C@H](CCCNC(=N)N)C(=O)N[C@H](CCCNC(=N)N)C(=O)N[C@H](CCCNC(=N)N)C(=O)N[C@H](CCCNC(=N)N)C(=O)N[C@H](CCCNC(=N)N)C(=O)N[C@H](CCCNC(=N)N)C(=O)N[C@H](CCCNC(=N)N)C(=O)N[C@H](CCCNC(=N)N)C(N)=O)C(C)C) [SEQ ID NO: 17] |  | apoptotic |  |
| acetyl------------FYLKLEDLVGXrrrrrrrr-amide (Ac-FYLKLEDLVG[Ahx][dR][dR][dR][dR][dR][dR][dR][dR]-NH2; SMILES CC(=O)N[C@@H](Cc1ccccc1)C(=O)N[C@@H](Cc1ccc(O)cc1)C(=O)N[C@@H](CC(C)C)C(=O)N[C@@H](CCCCN)C(=O)N[C@@H](CC(C)C)C(=O)N[C@@H](CCC(=O)O)C(=O)N[C@@H](CC(=O)O)C(=O)N[C@@H](CC(C)C)C(=O)N[C@H](C(=O)NCC(=O)NCCCCCC(=O)N[C@H](CCCNC(=N)N)C(=O)N[C@H](CCCNC(=N)N)C(=O)N[C@H](CCCNC(=N)N)C(=O)N[C@H](CCCNC(=N)N)C(=O)N[C@H](CCCNC(=N)N)C(=O)N[C@H](CCCNC(=N)N)C(=O)N[C@H](CCCNC(=N)N)C(=O)N[C@H](CCCNC(=N)N)C(N)=O)C(C)C) [SEQ ID NO: 18] |  | apoptotic |  |
| acetyl-FSRSLHSLAGXrrrrrrrr-amide (Ac-FSRSLHSLAG[Ahx][dR][dR][dR][dR][dR][dR][dR][dR]-NH2; SMILES CC(=O)N[C@@H](Cc1ccccc1)C(=O)N[C@@H](CO)C(=O)N[C@@H](CCCNC(=N)N)C(=O)N[C@@H](CO)C(=O)N[C@@H](CC(C)C)C(=O)N[C@@H](Cc1c[nH]cn1)C(=O)N[C@@H](CO)C(=O)N[C@@H](CC(C)C)C(=O)N[C@@H](C)C(=O)NCC(=O)NCCCCCC(=O)N[C@H](CCCNC(=N)N)C(=O)N[C@H](CCCNC(=N)N)C(=O)N[C@H](CCCNC(=N)N)C(=O)N[C@H](CCCNC(=N)N)C(=O)N[C@H](CCCNC(=N)N)C(=O)N[C@H](CCCNC(=N)N)C(=O)N[C@H](CCCNC(=N)N)C(=O)N[C@H](CCCNC(=N)N)C(N)=O) [SEQ ID NO: 64] | largely impaired |  |  |
| acetyl------------llshlsrsfGXrrrrrrrr-amide (Ac-[dL][dL][dS][dH][dL][dS][dR][dS][dF]G[Ahx][dR][dR][dR][dR][dR][dR][dR][dR]-NH2; SMILES CC(=O)N[C@H](CC(C)C)C(=O)N[C@H](CC(C)C)C(=O)N[C@H](CO)C(=O)N[C@H](Cc1c[nH]cn1)C(=O)N[C@H](CC(C)C)C(=O)N[C@H](CO)C(=O)N[C@H](CCCNC(=N)N)C(=O)N[C@H](CO)C(=O)N[C@H](Cc1ccccc1)C(=O)NCC(=O)NCCCCCC(=O)N[C@H](CCCNC(=N)N)C(=O)N[C@H](CCCNC(=N)N)C(=O)N[C@H](CCCNC(=N)N)C(=O)N[C@H](CCCNC(=N)N)C(=O)N[C@H](CCCNC(=N)N)C(=O)N[C@H](CCCNC(=N)N)C(=O)N[C@H](CCCNC(=N)N)C(=O)N[C@H](CCCNC(=N)N)C(N)=O) [Nur77/1(retro-inverso)] |  | apoptotic |  |
| Smac-peptide-r8: Smac peptide conjugated with r8, apoptosis-inducing comparison peptide (Ac-AVPIAQKC[Ahx][dR][dR][dR][dR][dR][dR][dR][dR]-NH2; also: Cys thiol joined to chloroacetyl-Ahx by thioether) [reference compound] |  |  | inhibition of co-precipitation of GFP-Nur77/489-497 with Bcl-2 (Bcl-2 [2]): not; Bcl-2 immunofluorescence by anti-Bcl-2/BH3 antibody (Bcl-2 [3]): did not show any Bcl-2 immunofluorescence |
| acetyl-FSRSAHSLLGXrrrrrrrr-amide (Ac-FSRSAHSLLG[Ahx][dR][dR][dR][dR][dR][dR][dR][dR]-NH2; SMILES CC(=O)N[C@@H](Cc1ccccc1)C(=O)N[C@@H](CO)C(=O)N[C@@H](CCCNC(=N)N)C(=O)N[C@@H](CO)C(=O)N[C@@H](C)C(=O)N[C@@H](Cc1c[nH]cn1)C(=O)N[C@@H](CO)C(=O)N[C@@H](CC(C)C)C(=O)N[C@@H](CC(C)C)C(=O)NCC(=O)NCCCCCC(=O)N[C@H](CCCNC(=N)N)C(=O)N[C@H](CCCNC(=N)N)C(=O)N[C@H](CCCNC(=N)N)C(=O)N[C@H](CCCNC(=N)N)C(=O)N[C@H](CCCNC(=N)N)C(=O)N[C@H](CCCNC(=N)N)C(=O)N[C@H](CCCNC(=N)N)C(=O)N[C@H](CCCNC(=N)N)C(N)=O) [SEQ ID NO: 62] | largely impaired |  |  |
| acetyl-FSRSLHSALGXrrrrrrrr-amide (Ac-FSRSLHSALG[Ahx][dR][dR][dR][dR][dR][dR][dR][dR]-NH2; SMILES CC(=O)N[C@@H](Cc1ccccc1)C(=O)N[C@@H](CO)C(=O)N[C@@H](CCCNC(=N)N)C(=O)N[C@@H](CO)C(=O)N[C@@H](CC(C)C)C(=O)N[C@@H](Cc1c[nH]cn1)C(=O)N[C@@H](CO)C(=O)N[C@@H](C)C(=O)N[C@@H](CC(C)C)C(=O)NCC(=O)NCCCCCC(=O)N[C@H](CCCNC(=N)N)C(=O)N[C@H](CCCNC(=N)N)C(=O)N[C@H](CCCNC(=N)N)C(=O)N[C@H](CCCNC(=N)N)C(=O)N[C@H](CCCNC(=N)N)C(=O)N[C@H](CCCNC(=N)N)C(=O)N[C@H](CCCNC(=N)N)C(=O)N[C@H](CCCNC(=N)N)C(N)=O) [SEQ ID NO: 63] | largely impaired |  |  |
| acetyl---F——L_LLGXrrrrrrrr-amide (Ac-FLLLG[Ahx][dR][dR][dR][dR][dR][dR][dR][dR]-NH2; SMILES CC(=O)N[C@@H](Cc1ccccc1)C(=O)N[C@@H](CC(C)C)C(=O)N[C@@H](CC(C)C)C(=O)N[C@@H](CC(C)C)C(=O)NCC(=O)NCCCCCC(=O)N[C@H](CCCNC(=N)N)C(=O)N[C@H](CCCNC(=N)N)C(=O)N[C@H](CCCNC(=N)N)C(=O)N[C@H](CCCNC(=N)N)C(=O)N[C@H](CCCNC(=N)N)C(=O)N[C@H](CCCNC(=N)N)C(=O)N[C@H](CCCNC(=N)N)C(=O)N[C@H](CCCNC(=N)N)C(N)=O) [SEQ ID NO: 40] |  | apoptotic |  |
| acetyl------------FGDWIDSILGXrrrrrrrr-amide (Ac-FGDWIDSILG[Ahx][dR][dR][dR][dR][dR][dR][dR][dR]-NH2; SMILES CC[C@H](C)[C@H](NC(=O)[C@H](CO)NC(=O)[C@H](CC(=O)O)NC(=O)[C@@H](NC(=O)[C@H](Cc1c[nH]c2ccccc12)NC(=O)[C@H](CC(=O)O)NC(=O)CNC(=O)[C@H](Cc1ccccc1)NC(C)=O)[C@@H](C)CC)C(=O)N[C@@H](CC(C)C)C(=O)NCC(=O)NCCCCCC(=O)N[C@H](CCCNC(=N)N)C(=O)N[C@H](CCCNC(=N)N)C(=O)N[C@H](CCCNC(=N)N)C(=O)N[C@H](CCCNC(=N)N)C(=O)N[C@H](CCCNC(=N)N)C(=O)N[C@H](CCCNC(=N)N)C(=O)N[C@H](CCCNC(=N)N)C(=O)N[C@H](CCCNC(=N)N)C(N)=O) [SEQ ID NO: 16] |  | apoptotic |  |
| acetyl------------LLSHLSRSFGXrrrrrrrr-amide (Ac-LLSHLSRSFG[Ahx][dR][dR][dR][dR][dR][dR][dR][dR]-NH2; not fully specified; printed as acetyl------------LLSHLSRSFGXrrrrrrrr-amide) [Nur77/1 (inverso)] |  | apoptotic |  |
